Entries after “also recorded” stand apart in the source; their conditions may differ. Where two headings read alike, the source gives them in different places.
Key:
[1] = sirolimus in lymphangioleiomyomatosis; cited from earlier work
[2] = tested on: TSC2 deficient TRI-AML101 cell line; assay: Cell viability, 10 point dose response, CellTiter-Glo; conditions: 72 hours after compound addition, relative to DMSO control (FIG. 7, bottom)
Description: Two thousand cells in 50 uL of growth media (DMEM, 10% FBS, and 1% Penicillin/Streptomycin) were plated per well in a 96 well plate. […] 72 hours after compound addition, relative cell viability was determined by CellTiter-Glo® luminescence assay (Promega) and expressed as a percentage relative to vehicle (DMSO) treated control cells.

[3] = Rapamycin in lung and blood by LC-MS/MS after oropharyngeal aspiration (OPA) or oral gavage; format: in vivo, male C57BL/6 mice
Description: Test Chemical Preparation: Evans Blue was prepared at 0.5% w/v in sterile distilled water. Rapamune Oral® was administered as supplied for oral dosing.
Dosing: Each animal was weighed prior to dosing to determine the amount of dose to be administered. A single gavage dose was administered using a […], glass syringe (Hamilton, Reno, Nev.) fitted with a ball-tipped 20-G stainless steel gavage dosing needle (Popper & Sons Inc., New Hyde Park, N.Y.). The dose administered to each animal was determined from the weight of the full syringe minus that of the empty syringe. The dosing time was recorded. Dosing of animals was spaced apart to allow blood collection at the appropriate times. The dose formulations administered to each group are shown below.
Each mouse was anesthetized with isoflurane, and restrained with the mouth open. The tongue was held to one side of the mouth with forceps, and the dose was slowly injected into the distal part of the oral cavity. The nostrils were covered with a finger for two breaths to ensure aspiration (Rao et al., 2003).
Collection of Blood and Lung Samples: At study termination (1 or 72 h after dosing), mice were anesthetized by exposure to CO2, and blood was collected by cardiac puncture with dipotassium EDTA as anticoagulant. Lung tissue was excised and divided into the right and left lung. The left lung was used for analysis, and the right lung flash frozen in liquid nitrogen and stored at −70° C. for further analysis.
Triamcinolone was used as internal standard.
Lung homogenate was prepared by homogenization of weighed lung samples with 2.8-mm ball bearings in a homogenizer with tissue+deionized water (1:3 w/v) in a SPEX SamplePrep 2010 Geno/Grinder.
The concentrations of standards were arranged so that each standard came from an alternate stock standard. A six-point calibration curve, each made in triplicate, was employed for analyte quantitation. A simple linear regression model with or without weighting was employed for curve fitting. The concentration range determined was from 1-2000 ng/mL in blood and 2-2000 ng/mL in lung homogenate.
Thirty (30) μL of matrix, 30 μL of spiking solution (methanol for blanks and samples), 10 μL Internal standard solution (in MeOH) and 90 μL of MeOH were pipetted into microcentrifuge tubes, vortexed briefly, then centrifuged for 6 min at 10,000 RPM at −4° C. Aliquots (90 μL) of supernatant were transferred to LC vial inserts, and then analyzed by LC-MS/MS (Table 2).

[4] = tested on: Phospho-S6 Ribosomal Protein (Ser240/244); assay: S6-P/total S6 western blot of rat lung homogenates after inhalation; format: in vivo, Sprague-Dawley rats; conditions: inhaled, target dose 0.354 mg/kg (FIG. 8B)
Description: Lungs samples from each animal were collected and snap frozen. The individual frozen lung samples were homogenized (Qiagen TissueLyser LT according to manufacturer's protocols) in 1×RIPA Buffer with protease and phosphatase inhibitors. […] The Western blot images were analyzed by NIH imageJ v1.48 to generate the respective antibody reactivity/intensity and create the ratio of S6 phosphorylation (S6-P) to total S6 intensities for each lung sample. The S6-P/total S6 ratios (y-axis) for sample organized by timepoint group (X-axis) were plotted on a one grouping variable scatter plot vertical graph (GraphPad, version 4.0), all samples in groups are represented by filled in black dots (●) on the graph and average is shown by the horizontal line between the dots within each respective group (FIG. 8B).

[5] = Biodistribution of rapamycin via inhalation, first study (single dose and 5 days)
[6] = 24 hours after 14th dose, cited from earlier work
[7] = tested on: phosphorylated S6 protein (mTOR activity); assay: Phosphorylated S6 in mouse lung after OPA or oral rapamycin; format: in vivo, C57bl/6 mice
Description: To validate this approach, we used the presence of phosphorylated S6 protein in murine lung tissue as a biomarker for mTOR activity. In the mouse strain used (C57b1/6), the mouse airway and alveolar epithelial cells have constitutively active (phosphorylated, “p”) S6 protein. The S6 protein is typically phosphorylated by S6K which is downstream of mTORC1 and is activated, for example, downstream of growth factors such as epidermal growth factor (EGF), AKT, ERK, and RSK. mTORC1 promotes cell growth and proliferation by stimulating anabolic processes such as biosynthesis of lipids, proteins, and organelles, and suppressing catabolic processes such as autophagy.

[8] = 28-day repeat dose inhalation toxicokinetics, study 7300227; format: in vivo, Beagle dogs; conditions: for concentration at 24 h: Beagle, dog, lung, read-out: Lung 24 hr trough levels; for Blood trough levels / Max blood levels: average of D28
Description: For the dog study, a positive flow delivery system (PFDS) consisting of a central plenum and delivery arms was utilized. The central plenum was of modular design with separate ports into which were attached 5 delivery arms fitted with oronasal exposure masks fitted with inlet and outlet tubes. The mask was fitted over the dog's muzzle in such a way that the nose was inside the mask, allowing entrance and exit of air. During exposure, animals wore a harness and were placed on a restraint platform. The harness was attached to two side poles on the platform in order to restrict lateral movement of the dog. The front part of the harness was loosely attached to a hook on the front of the platform to prevent the animal from turning around. […] For each dosing group, one set of animals (N=6) was dosed for 60 minutes each day for 28 consecutive days.

[9] = IV 10 mg/kg, 24 hours after single dose; cited from earlier work
[10] = inhaled 0.0360 mg/kg/day once a day, trough day 5
[11] = inhaled 1.0000 mg/kg/day once a day, trough day 5
[12] = emitted dose 160 ug, repeat inhaled daily dose 40 ug
[13] = emitted dose 424 ug, repeat inhaled daily dose 106 ug

Question: What does the source list for CO[C@H]1C[C@@H]2CC[C@@H](C)[C@@](O)(O2)C(=O)C(=O)N2CCCC[C@H]2C(=O)O[C@H]([C@H](C)C[C@@H]2CC[C@@H](O)[C@H](OC)C2)CC(=O)[C@H](C)/C=C(\C)[C@@H](O)[C@@H](OC)C(=O)[C@H](C)C[C@H](C)/C=C/C=C/C=C/1C [Rapamycin, (3 S,6R,7E,9R,10R,12R,14S,15E,17E,19E,21S,23 S,26R,27R,34aS)-9,10,12,13,-14,21,22,23,24,25,26,27,32,33,34,34a-hexadecahydro-9,27-dihydroxy-3-[(1R)-2-[(1S,3R,4R)-4-hydroxy-3-methoxycyclohexyl]-1-methylethyl]-10,21-dimethox-y-6,8,12,14,20,26-hexamethyl-23,27-epoxy-3H-pyrido[2,1-c][1,4]oxaazacyclohentriacontine-1,5,11,28,29(4H,6H,31H)-pentone]?
Answer: blood concentrations reported [1]: 5 to 15 ng/mL; lowest concentration at which viability was inhibited [2]: 0.05 nM; rapamycin in blood, in words ([3]; OPA 1 mg/kg, 72 h): below the limit of quantitation; also recorded: undetectable; Blood (ng/ml) ([3]; OPA 1 mg/kg, 72 h post-dose, individual mice): <ELOQ; Lung (ng/g tissue) ([3]; gavage (Rapamune Oral) 1 mg/kg, 1 h post-dose, individual mice, 1 mg/kg): <LOQ; rapamycin in lung or blood, in words ([3]; oral (gavage) 1 mg/kg, 72 hrs): undetectable; S6 phosphorylation in lung tissue [4]: Inhibits S6 Phosphorylation; Rapamycin in Blood [5, 10]: 4 ng/mL; Rapamycin in Lung [5, 10]: 87 ng/g; Rapamycin in Blood [5, 11]: 746 ng/mL; Rapamycin in Lung [5, 11]: 17163 ng/g; Rapamycin in Lung ([5]; inhaled 1.00 mg/kg/day, 12 hrs after a single dose): 14831 ng/g; Rapamycin in Blood ([6]; IV 0.04 mg/kg/day): 9.4 ng/mL; Rapamycin in Lung ([6]; IV 0.04 mg/kg/day): 219 ng/g; Rapamycin in Blood ([6]; IV 0.08 mg/kg/day): 15.0 ng/mL; Rapamycin in Lung ([6]; IV 0.08 mg/kg/day): 457 ng/g; Rapamycin in Blood ([6]; IV 0.40 mg/kg/day): 19.6 ng/mL; Rapamycin in Lung ([6]; IV 0.40 mg/kg/day): 868 ng/g; Rapamycin in Blood ([6]; oral 0.4 mg/kg/day): 0.8 ng/mL; Rapamycin in Lung ([6]; oral 0.4 mg/kg/day): 42 ng/g; Rapamycin in Blood ([6]; oral 0.8 mg/kg/day): 2.1 ng/mL; Rapamycin in Lung ([6]; oral 0.8 mg/kg/day): 59 ng/g; level of phosphorylated S6 (pS6) in lung ([7]; OPA 1 mg/kg, 1 hr (FIG. 8A)): reduced substantially; level of phosphorylated S6 (pS6) in lung ([7]; OPA 1 mg/kg, 72 hr (FIG. 8A)): remained suppressed; level of phosphorylated S6 (pS6) in lung ([7]; oral gavage 1 mg/kg, 1 hr (FIG. 8A)): reduced substantially; concentration at 24 h ([8]; inhaled, 106 ug): 61 ng/g; concentration at 24 h ([8]; emitted dose 160 ug, repeat inhaled daily dose 40 ug, after 28 days): 32 ng/g; Blood trough levels [8, 12]: 1.9 ng/mL; Max blood levels [8, 12]: 7.4 ng/mL; Blood trough levels [8, 13]: 5.9 ng/mL; Max blood levels [8, 13]: 27.3 ng/mL; Rapamycin in Blood [9]: 31 ng/mL; Rapamycin in Lung [9]: 721 ng/g

— patent US11648199B2 (AI Therapeutics, Inc, priority 2014, dated 2023)
